Experimental data published in publication PMC5971061, “Differential Effects of Linkers on the Activity of Amphiphilic Tobramycin Antifungals” (Molecules : A Journal of Synthetic Chemistry and Natural …, 2018).
≈ marks a conversion by molar mass, not a printed value. Like-named read-outs stand apart in the source and are kept apart here.

Key:
[1] = tested on: C. albicans ATCC 10231 (strain A); experiment: MIC, broth microdilution (CLSI M27-A3), yeast strain A; assay type: cell-based, Candida albicans; conditions: Candida albicans, ATCC10231; MIC-0, strain A, 35 °C 48 h
Method: (§1) The final concentrations of compounds 3, 4, 7a, 7b, 9, and 16, as well as that of TOB tested in this study ranged from 0.24–62.5 μg/mL. CAS was used as a positive control and the final concentrations tested for CAS ranged from 0.03–31.3 μg/mL. Briefly, overnight yeast cultures were grown in yeast peptone dextrose (YPD) broth and the cell density was adjusted to an OD600 of 0.12 (~1 × 10^6 CFU/mL) by using a spectrophotometer. Yeast cell suspensions were further diluted to achieve 1–5 × 10^3 CFU/mL in RPMI 1640 medium, and 100 μL of these yeast cells was added to 96-well microtiter plates containing RPMI 1640 medium and titrated compounds. Each test was performed in triplicate. The plates were incubated at 35 °C for 48 h.

[2] = tested on: C. albicans ATCC 64124 (strain B); experiment: MIC, broth microdilution (CLSI M27-A3), yeast strain B; assay type: cell-based; conditions: Candida albicans, ATCC64124; MIC-0, strain B, 35 °C 48 h
Method: as §1

[3] = tested on: C. albicans ATCC MYA-2876(S) (strain C); experiment: MIC, broth microdilution (CLSI M27-A3), yeast strain C; assay type: cell-based; conditions: Candida albicans; MIC-0, strain C, 35 °C 48 h
Method: as §1

[4] = tested on: C. albicans ATCC 90819(R) (strain D); experiment: MIC, broth microdilution (CLSI M27-A3), yeast strain D; assay type: cell-based; conditions: Candida albicans, ATCC90819; MIC-0, strain D, 35 °C 48 h
Method: as §1

[5] = tested on: C. albicans ATCC MYA-2310(S) (strain E); experiment: MIC, broth microdilution (CLSI M27-A3), yeast strain E; assay type: cell-based; conditions: Candida albicans; MIC-0, strain E, 35 °C 48 h
Method: as §1

[6] = tested on: C. albicans ATCC MYA-1237(R) (strain F); experiment: MIC, broth microdilution (CLSI M27-A3), yeast strain F; assay type: cell-based; conditions: Candida albicans; MIC-0, strain F, 35 °C 48 h
Method: as §1

[7] = tested on: Candida glabrata clinical isolate CG1; experiment: MIC, broth microdilution (CLSI M27-A3), CG1; assay type: cell-based; conditions: Nakaseomyces glabratus; MIC-0, CG1, 35 °C 48 h
Method: as §1

[8] = tested on: Candida glabrata clinical isolate CG3; experiment: MIC, broth microdilution (CLSI M27-A3), CG3; assay type: cell-based; conditions: Nakaseomyces glabratus; MIC-0, CG3, 35 °C 48 h
Method: as §1

[9] = tested on: Candida glabrata ATCC 2001 (strain H); experiment: MIC, broth microdilution (CLSI M27-A3), yeast strain H; assay type: cell-based; conditions: Nakaseomyces glabratus, ATCC2001; MIC-0, strain H, 35 °C 48 h
Method: as §1

[10] = tested on: Candida krusei ATCC 6258 (strain I); experiment: MIC, broth microdilution (CLSI M27-A3), yeast strain I; assay type: cell-based; conditions: Pichia kudriavzevii, ATCC6258; MIC-0, strain I, 35 °C 48 h
Method: as §1

[11] = tested on: Candida parapsilosis ATCC 22019 (strain J); experiment: MIC, broth microdilution (CLSI M27-A3), yeast strain J; assay type: cell-based; conditions: Lodderomyces parapsilosis, ATCC22019; MIC-0, strain J, 35 °C 48 h
Method: as §1

[12] = tested on: Candida parapsilosis clinical isolate CP3; experiment: MIC, broth microdilution (CLSI M27-A3), CP3; assay type: cell-based; conditions: MIC-0, CP3, 35 °C 48 h
Method: as §1

[13] = tested on: Cryptococcus neoformans clinical isolate CN1; experiment: MIC, broth microdilution (CLSI M27-A3), CN1; assay type: cell-based; conditions: MIC-0, CN1, 35 °C 48 h
Method: as §1

[14] = tested on: Cryptococcus neoformans clinical isolate CN2; experiment: MIC, broth microdilution (CLSI M27-A3), CN2; assay type: cell-based; conditions: MIC-0, CN2, 35 °C 48 h
Method: as §1

[15] = tested on: Cryptococcus neoformans clinical isolate CN3; experiment: MIC, broth microdilution (CLSI M27-A3), CN3; assay type: cell-based; conditions: MIC-0, CN3, 35 °C 48 h
Method: as §1

[16] = tested on: Aspergillus nidulans ATCC 38163 (strain L); experiment: MIC, filamentous fungi (CLSI M38-A2), strain L; assay type: cell-based; conditions: MIC-0, strain L, 35 °C 72 h
Method: (§2) The spores were harvested from sporulating cultures growing on potato dextrose agar (PDA) by filtration through sterile glass wool and enumerated by using a hemocytometer (Hausser Scientific, Horsham, PA, USA) to obtain the desired inoculum size. Two-fold serial dilutions of compounds 3, 4, 7a, 7b, 9, and 16, as well as CAS and TOB were made in sterile 96-well microtiter plates to obtain the final concentration range of 0.24–62.5 μg/mL for TOB and TOB derivatives as well as 0.03–31.3 μg/mL for CAS in the RPMI 1640 medium. The spore suspensions were added to the wells to afford a final concentration of 5 × 10^5 spores/mL. The plates were incubated at 35 °C for 72 h. […] Each test was performed in triplicate.

[17] = tested on: Aspergillus terreus ATCC MYA-3633 (strain M); experiment: MIC, filamentous fungi (CLSI M38-A2), strain M; assay type: cell-based; conditions: MIC-0, strain M, 35 °C 72 h
Method: as §2

[18] = tested on: seven C. albicans strains (A-G); experiment: MIC across the panel of seven C. albicans strains; assay type: cell-based; conditions: Candida albicans; across all seven C. albicans strains tested
Method: as §1

[19] = tested on: nine non-albicans Candida strains (H-J, CG1-3, CP1-3); experiment: MIC across the panel of nine non-albicans Candida strains; assay type: cell-based, Candida glabrata, Candida krusei, Candida parapsilosis
Method: as §1

BEAS-2B cell line = experiment: In vitro cytotoxicity assay (resazurin), BEAS-2B; assay type: cell-based, human; conditions: 24 h; for IC50: Homo sapiens, resazurin
Method: Mammalian cytotoxicity assays were performed as previously described with minor modifications. The normal human bronchial epithelial cells BEAS-2B and the human lung carcinoma epithelial cells A549 were grown in DMEM containing 10% fetal bovine serum (FBS) and 1% antibiotics. The confluent cells were then trypsinized with 0.05% trypsin and 0.53 mM EDTA, and resuspended in fresh DMEM medium. The cells were transferred into 96-well microtiter plates at a density of 3000 cells/well and were grown for 24 h. The following day, the medium was replaced by a fresh culture medium containing serially diluted compounds 3, 4, 7a, 7b, and 9, as well as the parent drug TOB at final concentrations of 0.48–62.5 μg/mL or sterile ddH2O (negative control). The cells were incubated for an additional 24 h at 37 °C with 5% CO2 in a humidified incubator. To evaluate cell survival, each well was treated with 10 μL (25 μg/mL) of resazurin sodium salt (Sigma-Aldrich) for 4–6 h. Metabolically active cells can convert resazurin (blue) to the highly fluorescent dye resorufin (pink), which was detected at λ560 excitation and λ590 emission wavelengths by using a SpectraMax M5 plate reader. Triton X-100® (1% v/v) gave the complete loss of cell viability and was used as the positive control. The percentage survival rates were calculated by using the following formula: % cell survival = [(fluorescence of sample) − (fluorescence of blank)] × 100/[(fluorescence of negative control) − (fluorescence of blank)].

[20] = Aspergillus nidulans, ATCC38163, 72 h, read-out: MIC

MIC [1] [µg/mL]	MIC [2] [µg/mL]	MIC [3] [µg/mL]	MIC [4] [µg/mL]	MIC [5] [µg/mL]	MIC [6] [µg/mL]	MIC [7] [µg/mL]	MIC [8] [µg/mL]	MIC [9] [µg/mL]	MIC [10] [µg/mL]	MIC [11] [µg/mL]	MIC [12] [µg/mL]	MIC [13] [µg/mL]	MIC [14] [µg/mL]	MIC [15] [µg/mL]	MIC [16, 20] [µg/mL]	MIC [16] [µg/mL]	MIC [17] [µg/mL]	MIC [18] [µg/mL]	MIC [19] [µg/mL]	SMILES	further results
3.9 (≈ 5.68 µM)	3.9 (≈ 5.68 µM)	15.6 (≈ 22.7 µM)	15.6 (≈ 22.7 µM)	7.8 (≈ 11.4 µM)	7.8 (≈ 11.4 µM)	3.9 (≈ 5.68 µM)	3.9 (≈ 5.68 µM)	7.8 (≈ 11.4 µM)	3.9 (≈ 5.68 µM)	1.95 (≈ 2.84 µM)	7.8 (≈ 11.4 µM)	0.48 (≈ 0.699 µM)	0.48 (≈ 0.699 µM)	0.975 (≈ 1.42 µM)	1.95 to 3.9 (≈ 2.84 to 5.68 µM)	1.95 (≈ 2.84 µM)	62.5 (≈ 91 µM)	3.9 to 15.6 (≈ 5.68 to 22.7 µM)	1.95 to 7.8 (≈ 2.84 to 11.4 µM)	CCCCCCCCCCCCc1cn(C[C@H]2O[C@H](O[C@@H]3[C@@H](O)[C@H](O[C@H]4O[C@H](CN)[C@@H](O)C[C@H]4N)[C@@H](N)C[C@H]3N)[C@H](O)[C@@H](N)[C@@H]2O)nn1 [Compound 7b, O-3-Amino-3,6-dideoxy-6-(4-dodecyl-1H-1,2,3-triazol-1-yl)-α-D-glucopyranosyl-(1→6)-O-[2,6-diamino-2,3,6-trideoxy-α-D-ribo-hexopyranosyl-(1→4)]-2-deoxy-D-streptamine]	IC50 (BEAS-2B cell line): > 62.5 µg/mL
31.3 (≈ 48.2 µM)	15.6 (≈ 24 µM)	31.3 (≈ 48.2 µM)	62.5 (≈ 96.3 µM)	31.3 (≈ 48.2 µM)	31.3 (≈ 48.2 µM)	15.6 (≈ 24 µM)	15.6 (≈ 24 µM)	31.3 (≈ 48.2 µM)	15.6 (≈ 24 µM)	7.8 (≈ 12 µM)	31.3 (≈ 48.2 µM)	0.975 (≈ 1.5 µM)	0.975 (≈ 1.5 µM)	0.975 (≈ 1.5 µM)	1.95 to 3.9 (≈ 3.01 to 6.01 µM)	3.9 (≈ 6.01 µM)	> 62.5	15.6 to 62.5 (≈ 24 to 96.3 µM)	7.8 to 31.3 (≈ 12 to 48.2 µM)	CCCCCCCCCCCC(=O)NC[C@H]1O[C@H](O[C@@H]2[C@@H](O)[C@H](O[C@H]3O[C@H](CN)[C@@H](O)C[C@H]3N)[C@@H](N)C[C@H]2N)[C@H](O)[C@@H](N)[C@@H]1O [Compound 9, O-3-Amino-3,6-dideoxy-6-[(1-oxododecyl)amino]-α-D-glucopyranosyl-(1→6)-O-[2,6-diamino-2,3,6-trideoxy-α-D-ribo-hexopyranosyl-(1→4)]-2-deoxy-D-streptamine]	IC50 (BEAS-2B cell line): > 62.5 µg/mL
> 62.5	> 62.5	> 62.5	> 62.5	> 62.5	> 62.5	> 62.5	> 62.5	> 62.5	> 62.5	> 62.5	> 62.5	> 62.5	> 62.5	> 62.5	> 62.5	–	> 62.5	> 62.5	> 62.5	NC[C@H]1O[C@H](O[C@H]2[C@H](O)[C@@H](O[C@H]3O[C@H](CO)[C@@H](O)[C@H](N)[C@H]3O)[C@H](N)C[C@@H]2N)[C@H](N)C[C@@H]1O [TOB, tobramycin]	toxicity (in words) (BEAS-2B cell line; 0.48-62.5 μg/mL): little to no toxicity
